# Source: patent US20230167088A1, “1-PYRAZINYLPYRAZOLYL-3-OXYALKYL ACIDS AND THEIR DERIVATIVES, AND THEIR USE FOR CONTROL OF UNDESIRED PLANT GROWTH” (BAYER AKTIENGESELLSCHAFT, priority 2020, published 2023)
# Columns and labels:
# [1] = system: ALOMY; assay: Herbicidal post-emergence action 1a (greenhouse pots, visual rating); format: in vivo, Alopecurus myosuroides; details: rated visually about 3 weeks after treatment, 100% = plants have died, 0% = like control plants
# Procedure: (§1) [table] a) Seeds of monocotyledonous and dicotyledonous weeds and crop plants are placed in sandy loam in plastic or organic plant pots, covered with soil and cultivated in a greenhouse under controlled growth conditions. 2 to 3 weeks after sowing, the test plants are treated at the one-leaf stage. The compounds of the invention, formulated in the form of wettable powders (WP) or as emulsion concentrates (EC), are then sprayed onto the green parts of the plants as aqueous suspension or emulsion with addition of 0.5% additive at a water application rate of 600 1/ha (converted). After the test plants have been kept in the greenhouse under optimum growth conditions for about 3 weeks, the activity of the preparations is rated visually in comparison to untreated controls. For example, 100% activity=the plants have died, 0% activity=like control plants. Tables A1 to A15 below show the effects of selected compounds of the general formula (I) according to Tables 1 and 2 on various harmful plants and an application rate corresponding to 320 g/ha and/or 80 g/ha, which were obtained by the experimental procedure mentioned above.
# [2] = system: AVEFA; assay: as above; format: in vivo, Avena fatua; details: rated visually about 3 weeks after treatment, 100% = plants have died, 0% = like control plants
# Procedure: as §1
# [3] = system: ECHCG; assay: as above; format: in vivo, Echinochloa crus-galli; details: Dosage 320 g/ha; rated visually about 3 weeks after treatment; 100% = plants have died, 0% = like control plants
# Procedure: as §1
# [4] = system: SETVI; assay: as above; format: in vivo, Setaria viridis; details: rated visually about 3 weeks after treatment, 100% = plants have died, 0% = like control plants
# Procedure: as §1
# [5] = system: AMARE; assay: as above; format: in vivo, Amaranthus retroflexus; details: visual rating about 3 weeks after treatment
# Procedure: as §1
# [6] = system: POLCO; assay: as above; format: in vivo, Polygonum convolvulus; details: visual rating about 3 weeks after treatment
# Procedure: as §1
# [7] = system: ALOMY; assay: Herbicidal pre-emergence action 2a (greenhouse pots, visual scoring); format: in vivo, Alopecurus myosuroides; details: dosage 320 g/ha, visual scoring after about 3 weeks
# Source text: (§2) [table] a) Seeds of monocotyledonous and dicotyledonous weed plants and crop plants are placed in plastic or organic plant pots and covered with soil. The compounds of the invention, formulated in the form of wettable powders (WP) or as emulsion concentrates (EC), are then applied onto the surface of the covering soil as aqueous suspension or emulsion with addition of 0.5% additive at a water application rate of 600 1/ha (converted). After the treatment, the pots are placed in a greenhouse and kept under good growth conditions for the trial plants. After about 3 weeks, the effect of the preparations is scored visually in comparison with untreated controls as percentages. For example, 100% activity=the plants have died, 0% activity=like control plants. Tables B1 to B15 below show the effects of selected compounds of the general formula (I) according to Tables 1 and 2 on various harmful plants and an application rate corresponding to 320 g/ha and/or 80 g/ha, which were obtained by the experimental procedure mentioned above.
# [8] = system: AVEFA; assay: as above; format: in vivo, Avena fatua; details: dosage 320 g/ha, visual scoring after about 3 weeks
# Source text: as §2
# [9] = system: LOLRI; assay: as above; format: in vivo, Lolium rigidum; details: dosage 320 g/ha, visual scoring after about 3 weeks vs untreated controls
# Source text: as §2
# [10] = system: SETVI; assay: as above; format: in vivo, Setaria viridis; details: dosage 320 g/ha, visual scoring after about 3 weeks vs untreated controls
# Source text: as §2
# [11] = system: AMARE; assay: as above; format: in vivo, Amaranthus retroflexus; details: dosage 320 g/ha, visual scoring after about 3 weeks vs untreated controls
# Source text: as §2
# [12] = system: POLCO; assay: as above; format: in vivo, Polygonum convolvulus; details: dosage 320 g/ha, visual scoring after about 3 weeks vs untreated controls
# Source text: as §2
# [13] = system: VERPE; assay: as above; format: in vivo, Veronica persica; details: dosage 320 g/ha, visual scoring after about 3 weeks vs untreated controls
# Source text: as §2
# [14] = system: LOLRI; assay: Herbicidal post-emergence action 1a (greenhouse pots, visual rating); format: in vivo, Lolium rigidum; details: Dosage 320 g/ha; rated visually about 3 weeks after treatment; 100% = plants have died, 0% = like control plants
# Procedure: as §1
# [15] = system: ABUTH; assay: as above; format: in vivo, Abutilon theophrasti; details: visual rating about 3 weeks after treatment
# Procedure: as §1
# [16] = system: MATIN; assay: as above; format: in vivo, Matricaria inodora; details: dosage 320 g/ha, visual rating about 3 weeks after treatment
# Procedure: as §1
# [17] = system: VERPE; assay: as above; format: in vivo, Veronica persica; details: visual rating about 3 weeks after treatment
# Procedure: as §1
# [18] = system: MATIN; assay: Herbicidal pre-emergence action 2a (greenhouse pots, visual scoring); format: in vivo, Matricaria inodora; details: dosage 320 g/ha, visual scoring after about 3 weeks vs untreated controls
# Source text: as §2
SMILES,Post-emergence action against ALOMY in % ([1]; Dosage 80 g/ha) [%],Post-emergence action against ALOMY in % ([1]; Dosage 320 g/ha) [%],Post-emergence action against AVEFA in % ([2]; Dosage 320 g/ha) [%],Post-emergence action against ECHCG in % [3] [%],Post-emergence action against SETVI in % ([4]; Dosage 320 g/ha) [%],Post-emergence action against AMARE in % ([5]; dosage 320 g/ha) [%],Post-emergence action against POLCO in % ([6]; dosage 320 g/ha) [%],Pre-emergence action against ALOMY in % [7] [%],Pre-emergence action against LOLRI in % [9] [%],Pre-emergence action against SETVI in % [10] [%],Pre-emergence action against AMARE in % [11] [%],Pre-emergence action against VERPE in % [13] [%],Post-emergence action against MATIN in % [16] [%],other results
COC(=O)CNC(=O)[C@@H](C)Oc1nn(-c2cnccn2)c(-c2ccc(F)nc2)c1Br [II-03],80,90,90,80,90,90,80,100,100,100,100,100,,Post-emergence action against SETVI in % ([4]; Dosage 80 g/ha): 90%; Pre-emergence action against AVEFA in % [8]: 100%; Pre-emergence action against POLCO in % [12]: 90%
COC(=O)[C@@H](C)Oc1nn(-c2cnccn2)c(-c2ccc(F)nc2)c1I [Example I-89],80,100,100,80,90,90,90,100,100,100,100,100,80,Post-emergence action against AVEFA in % ([2]; Dosage 80 g/ha): 90%; Post-emergence action against LOLRI in % [14]: 100%; Post-emergence action against ABUTH in % ([15]; dosage 80 g/ha): 90%; Post-emergence action against ABUTH in % ([15]; dosage 320 g/ha): 90%; Post-emergence action against AMARE in % ([5]; dosage 80 g/ha): 90%; Post-emergence action against POLCO in % ([6]; dosage 80 g/ha): 90%; Post-emergence action against VERPE in % ([17]; dosage 80 g/ha): 80%; Post-emergence action against VERPE in % ([17]; dosage 320 g/ha): 90%
O=C(O)COc1nn(-c2cnccn2)c(-c2ccc(F)nc2)c1C1CC1 [Example I-83],80,80,,,,,,,,,,,80,
CCOC(=O)COc1nn(-c2nccnc2F)c(-c2ccc(F)nc2)c1Br [Example I-76],,,,,,,,,,,90,,,Pre-emergence action against MATIN in % [18]: 90%
